This note sets out measurements from US4785090A, “Cephalosporin derivatives” (Meiji Seika Kaisha, Ltd., priority 1984, dated 1988).

Values after ≈ are worked out from the molar mass of the structure shown. Counter-ions that a name gives are not always drawn. Like-named read-outs stand apart in the source and are kept apart here.

Assay type in all cases: cell-based
Assay [1] relates to Staphylococcus aureus 209PJC1. The assay can be described thus: Minimum Growth Inhibitory Concentration (MIC), Staphylococcus aureus 209PJC1. As to conditions: Table 2, bacterium 2: Staphylococcus aureus 209 PJC1; read-out: Minimum Growth Inhibitory Concentration (MIC).
Description: (§1) Minimum Growth Inhibitory Concentration (MIC) mcg/ml
1. Staphylococcus aureus 209PJC1
as §1
2. Staphylococcus aureus 209 PJC1

Assay [2] deals with Klebsiella pneumoniae PCI 602. The assay can be described thus: Minimum Growth Inhibitory Concentration (MIC), Klebsiella pneumoniae PCI 602. As to conditions: PCI602; Table 2, bacterium 5: Klebsiella pneumoniae PCI 602; read-out: Minimum Growth Inhibitory Concentration (MIC).
Description: as §1
5. Klebsiella pneumoniae PCI 602

In another assay the test system is Proteus rettgeri GN624. The assay can be described thus: Minimum Growth Inhibitory Concentration (MIC), Proteus rettgeri GN624. As to conditions: Providencia rettgeri; Table 2, bacterium 9: Proteus rettgeri GN624; read-out: Minimum Growth Inhibitory Concentration (MIC).
Description: as §1
9. Proteus rettgeri GN624

Assay [3] concerns Serratia marcescens No. 2. The assay can be described thus: Minimum Growth Inhibitory Concentration (MIC), Serratia marcescens No. 2. As to conditions: Table 2, bacterium 10: Serratia marcescens No. 2; read-out: Minimum Growth Inhibitory Concentration (MIC).
Description: as §1
10. Serratia marcescens No. 2

The test system of assay [4] is Salmonella typhimurium LT2. The assay can be described thus: Minimum Growth Inhibitory Concentration (MIC), Salmonella typhimurium LT2. The note with it: Salmonella enterica, read-out: Minimum Growth Inhibitory Concentration (MIC).
Description: as §1
7. Salmonella typhimurium LT2

In another assay the test system is Proteus vulgaris GN 76. The assay can be described thus: Minimum Growth Inhibitory Concentration (MIC), Proteus vulgaris GN 76. The note with it: GN76; Table 2, bacterium 8: Proteus vulgaris GN 76; read-out: Minimum Growth Inhibitory Concentration (MIC).
Description: as §1
10. Proteus vulgaris GN 76
as §1
8. Proteus vulgaris GN 76

The subject of assay [5] is Staphylococcus aureus Smith. As to the kind of experiment: Minimum Growth Inhibitory Concentration (MIC), Staphylococcus aureus Smith. As to conditions: Table 2, bacterium 1: Staphylococcus aureus Smith; read-out: Minimum Growth Inhibitory Concentration (MIC).
Description: as §1
1. Staphylococcus aureus Smith

For a further assay, the system named is Proteus mirabilis GN 79. As to the kind of experiment: Minimum Growth Inhibitory Concentration (MIC), Proteus mirabilis GN 79. As to conditions: GN79; Table 2, bacterium 6: Proteus mirabilis GN 79; read-out: Minimum Growth Inhibitory Concentration (MIC).
Description: as §1
6. Proteus mirabilis GN 79

The test system of a further assay is Eshcerichia coli GN 206. As to the kind of experiment: Minimum Growth Inhibitory Concentration (MIC), Escherichia coli GN 206. The note with it: GN206, Table 2, bacterium 4: Eshcerichia coli GN 206, read-out: Minimum Growth Inhibitory Concentration (MIC).
Description: as §1
4. Eshcerichia coli GN 206

Assay [6] has as its system Escherichia coli NIHJ JC2. The assay can be described thus: Minimum Growth Inhibitory Concentration (MIC), Escherichia coli NIHJ JC2. The note with it: NIHJJC2; Table 2, bacterium 3: Escherichia coli NIHJ JC2; read-out: Minimum Growth Inhibitory Concentration (MIC).
Description: as §1
3. Escherichia coli NIHJ JC2

Assay [7] relates to Serratia marcescens No. 1. As to the kind of experiment: Minimum Growth Inhibitory Concentration (MIC), Serratia marcescens No. 1. The note with it: Table 2, bacterium 11: Serratia marcescens No. 1.
Description: as §1
11. Serratia marcescens No. 1

[8] abbreviates: Table 2, bacterium 7: Salmonella typhimurium LT2.

For the compound `CCO/N=C(\C(=O)N[C@@H]1C(=O)N2C(C(=O)[O-])=C(CSc3cccc[n+]3CC(=O)O)CS[C@H]12)c1csc(N)n1` [Example 33, sodium salt], the MIC in assay [1] turned out to be 0.78 µg/mL; in [2], 0.05 µg/mL; in the assay on Proteus rettgeri GN624, 6.25 µg/mL; in assay [3], 0.1 µg/mL; in [4] (setting [8]), 0.05 µg/mL; in the assay on Proteus vulgaris GN 76, 0.39 µg/mL. Besides, the MIC was found to be 1.56 µg/mL in assay [5], 0.39 µg/mL in the assay with Proteus mirabilis GN 79, 0.78 µg/mL in the assay on Eshcerichia coli GN 206 and 0.05 µg/mL in assay [6].

Take `CO/N=C(\C(=O)N[C@@H]1C(=O)N2C(C(=O)[O-])=C(CSc3cc[n+](CC(F)(F)F)cc3)CS[C@H]12)c1csc(N)n1` [Example 80, (6R,7R)-7-[(Z)-2-(2-Aminothiazol-4-yl)-2-methoxyiminoacetamido]-3-[1-(2,2,2-trifluoroethylpyridinium-4-yl)thiomethyl]-ceph-3-em-4-carboxylate]: the MIC in assay [1] worked out at 0.2 µg/mL (≈ 0.34 µM); in assay [2], 0.2 µg/mL (≈ 0.34 µM); in the assay with Proteus rettgeri GN624, 0.2 µg/mL (≈ 0.34 µM); in assay [4] (setting [8]) it was 0.2 µg/mL (≈ 0.34 µM); with Proteus vulgaris GN 76, 0.78 µg/mL (≈ 1.33 µM); in assay [7], 0.2 µg/mL (≈ 0.34 µM). In addition, the MIC in assay [5] came out at 0.2 µg/mL (≈ 0.34 µM); in the assay with Proteus mirabilis GN 79, 1.56 µg/mL (≈ 2.65 µM); in the assay with Eshcerichia coli GN 206 it was 0.05 µg/mL (≈ 0.0849 µM); in assay [6], 0.2 µg/mL (≈ 0.34 µM).

`CCO/N=C(\C(=O)N[C@@H]1C(=O)N2C(C(=O)[O-])=C(CSc3cc[n+](CC(F)(F)F)cc3)CS[C@H]12)c1csc(N)n1` [Example 81, (6R,7R)-7-[(Z)-2-(2-Aminothiazol-4-yl)-2-ethoxyiminoacetamido]-3-[1-(2,2,2-trifluoroethylpyridinium-4-yl)thiomethyl]-ceph-3-em-4-carboxylate]: the MIC in assay [1] turned out to be 0.39 µg/mL (≈ 0.647 µM); in assay [2] it was 0.1 µg/mL (≈ 0.166 µM); in the assay with Proteus rettgeri GN624 it was 0.1 µg/mL (≈ 0.166 µM); in [4] (setting [8]), 0.05 µg/mL (≈ 0.083 µM); with Proteus vulgaris GN 76, 0.39 µg/mL (≈ 0.647 µM); in assay [7] it was 0.05 µg/mL (≈ 0.083 µM). Moreover, the MIC in assay [5] is 0.39 µg/mL (≈ 0.647 µM); in the assay on Proteus mirabilis GN 79, 0.78 µg/mL (≈ 1.29 µM); with Eshcerichia coli GN 206, at most 0.025 µg/mL; in assay [6], 0.05 µg/mL (≈ 0.083 µM).

For `Nc1nc(/C(=N/OCC(=O)O)C(=O)N[C@@H]2C(=O)N3C(C(=O)[O-])=C(CSc4cc[n+](CC(F)(F)F)cc4)CS[C@H]23)cs1` [Example 82, (6R,7R)-7-[(Z)-2-(2-Aminothiazol-4-yl)-2-(carboxymethoxyimino)acetamido]-3-[1-(2,2,2-trifluoroethylpyridinium-4-yl)thiomethyl]-ceph-3-em-4-carboxylic acid sodium salt], the MIC is 3.13 µg/mL in assay [1]; at most 0.025 µg/mL in [2]; under 0.025 µg/mL in the assay with Proteus rettgeri GN624; under 0.025 µg/mL in [4] (TYPHIMURIUM); 0.05 µg/mL in the assay with Proteus vulgaris GN 76; under 0.025 µg/mL in [7]. Also, the MIC in assay [5] amounted to 3.13 µg/mL; in the assay with Proteus mirabilis GN 79, 0.05 µg/mL; in the assay on Eshcerichia coli GN 206 it was 0.05 µg/mL; in assay [6] it was 0.05 µg/mL.

Consider `CC(C)(O/N=C(\C(=O)N[C@@H]1C(=O)N2C(C(=O)[O-])=C(CSc3cc[n+](CC(F)(F)F)cc3)CS[C@H]12)c1csc(N)n1)C(=O)O` [Example 83, (6R,7R)-7-[(Z)-2-(2-Aminothiazol-4-yl)-2-(carboxyprop-2-oxyimino)acetamido]-3-[1-(2,2,2-trifluoroethylpyridinium-4-yl)thiomethyl]-ceph-3-em-4-carboxylic acid sodium salt], for which the MIC is 3.13 µg/mL in assay [1]; 0.2 µg/mL in assay [2]; 0.2 µg/mL with Proteus rettgeri GN624; 0.05 µg/mL in [4] (setting [8]); 0.2 µg/mL with Proteus vulgaris GN 76; 0.05 µg/mL in assay [7]. Besides, the MIC in [5] was found to be 6.25 µg/mL; with Proteus mirabilis GN 79, 0.39 µg/mL; in the assay on Eshcerichia coli GN 206, 0.2 µg/mL; in [6] it was 0.2 µg/mL.
